Earlier results in patent US20160367620A1, “GLUTATHIONE” (priority 2015, published 2016).

How the values were obtained:
topoisomerase II = conditions: cited from earlier work
HIV-1 = conditions: human macrophages; cited from earlier work
8E5 cells = conditions: HIV gene expression, low GSH-peroxidase activity; cited from earlier work
[1] = tested on: murine macrophage J774 cells; conditions: exposure to the NO-releasing compound; cited from earlier work
HIV-1 LTR = conditions: Jurkat cells; cited from earlier work
NFκB = conditions: Jurkat cells, various concentrations; cited from earlier work
HUVEC and QG90 cell = conditions: pretreatment of HUVEC, IL-1 induced; cited from earlier work
Mouse = conditions: subcutaneous injection; cited from earlier work
P-selectin = conditions: human endothelial cells; cited from earlier work
[2] = tested on: human immunodeficiency virus (HIV) expression; conditions: U1 cells; cited from earlier work

## O=[N+]([O-])c1ccc(SSc2ccc([N+](=O)[O-])cn2)nc1 [2,2′ dithiobis (5-nitropyridine)]
Topoisomerase II
  topoisomerase II-mediated DNA cleavage: caused topoisomerase II-mediated DNA cleavage

## CCCCS(=N)(=O)CCC(N)C(=O)O (stereo not drawn) [BSO, buthionine sulfoximine]
HIV-1
  HIV yield in the supernatant: significantly increased

## CCCCCC(/C=C/C=C\C/C=C\C/C=C\CCCC(=O)O)OO (stereo not drawn) [Example 15-HPETE, 15-hydroperoxy eicosatetraenoic acid]
8E5 cells
  increase in sensitivity of 8E5 cells to killing: 10 fold

## CCN1C(=O)C=CC1=O [NEM, N-ethyl maleimide]
Topoisomerase II
  topoisomerase II-mediated DNA cleavage: caused topoisomerase II-mediated DNA cleavage

## CC(=O)N[C@H](C(=O)O)C(C)(C)SN=O [SNAP, S-nitroso-N-acetyl penicillamine]
[1]
  viability of macrophages: diminished

## N/C(=N\O)c1cc(O)c(O)c(O)c1 [TD, Trimidox]
HIV-1 LTR
  induction of HIV-1 LTR-mediated gene expression by TNF-α and Tat: significantly suppressed
NFκB
  TNF-α-induced NFκB binding: inhibited

## CC(=O)Oc1ccccc1C(=O)O [aspirin]
HUVEC and QG90 cell
  cell-to-cell attachment of cancer cells to HUVEC: efficiently blocked the cell-to-cell attachment in a dose-dependent manner

## CN1CC[C@]23c4c5ccc(O)c4O[C@H]2C(=O)C=C[C@H]3[C@H]1C5 [morphinone]
Mouse
  toxicity relative to morphine: 9 times

## CC(=O)CCCCn1c(=O)c2c(ncn2C)n(C)c1=O [pentoxyphillin]
HUVEC and QG90 cell
  cell-to-cell attachment of cancer cells to HUVEC: efficiently blocked the cell-to-cell attachment in a dose-dependent manner

## O=C([O-])c1ccccc1O.[Na+] [sodium salicylate]
P-selectin
  IL-4 induced expression of P-selectin: inhibited

## glutathione ester [GSE]
[2]
  induction of HIV expression mediated by PMA, TNF-α, or IL-6: suppressed in a dose-dependent fashion
